From patent US9556115B2, “Sulfonamides for the prevention of diabetes” (Dompé S.P.A., priority 2009, dated 2017)

Tested on: MLD-STZ-induced diabetes in male C57BL/6J mice
Assay: Diabetes induction after multiple low dose (MLD)-streptozotocin (STZ) injections
Format: in vivo, mouse
Settings: for glycemic levels after development of diabetes vs control mice / time to develop the disease compared to controls: mice injected with STZ, summary statement
Method: Injection of susceptible mice strains with multiple low doses of (STZ) provokes a condition with clinical and histoimmunological features similar to human Type 1 diabetes mellitus (DM). It has been established that five daily doses of 40 mg/kg/day of STZ are required for delayed onset, sustained and progressive hyperglycemia and insulitis in male C57BL/6 mice.
This model was previously used to study the role of proinflammatory cytokines in the development of Type 1 diabetes. 12 male C57BL/6J mice received MLD-STZ treatment. STZ was injected i.p. at a dose of 40 mg/kg/day, for 5 consecutive days. Glucose concentrations in venous blood was measured every day starting from the first day of treatment. Mice with glycemia over 250 mg/dl on three consecutive tests were considered diabetic, with the first detection of hyperglycemia taken as the date of diabetes onset. The mice were monitored for up to 60 days post first STZ injection. Reparixin was administered by s.c. continuous infusion starting from day −1 up to day 7 after first STZ injection at a dose of 8 mg/h/kg.
Male C57BL/6J mice were injected i.p. with (ML)-streptozotocin (STZ) at a dose of 40 mg/kg/day, for 5 consecutive days. Glucose concentrations in venous blood were measured every day starting from the first day of treatment (day 0). Mice with glycaemia over 250 mg/dl on three consecutive tests were considered diabetic, with the first detection of hyperglycemia taken as the date of diabetes onset. The mice were followed for up to 60 days post first STZ injection. Meraxin was administered per os at a dose of 15 mg/kg for 7 or 14 days, starting from day −1 of first STZ injection.
In a second set of experiments, the treatment with Meraxin for 14 days was started +5 (n=4) days after the first STZ injection to mimic the clinical setting of diabetes onset.

| Compound | diabetes onset (Meraxin for 14 days started day +5 after first STZ injection (up to day 19), n=4) | glycaemic levels vs vehicle-treated mice (Meraxin for 14 days started day +5 after first STZ injection, whole 2-month observation period) | median diabetes-free time (Meraxin per os 15 mg/kg for 7 days starting from day -1, n=8, p=0.67 vs ctrl) | median diabetes-free time (Meraxin per os 15 mg/kg for 14 days starting from day -1, n=8, p=0.016 vs ctrl) | glycemic levels after development of diabetes vs control mice | time to develop the disease compared to controls | glycaemia levels after diabetes development vs vehicle-treated group (Reparixin s.c. continuous infusion 8 mg/h/kg day -1 to day 7, whole two-month observation period) | median diabetes free time (Reparixin s.c. continuous infusion 8 mg/h/kg from day -1 up to day 7 after first STZ injection, n=8, p=0.026 vs ctrl) |
| --- | --- | --- | --- | --- | --- | --- | --- | --- |
| C[C@@H](C(=O)NS(C)(=O)=O)c1ccc(OS(=O)(=O)C(F)(F)F)cc1 [Meraxin, R(-)-2-[(4′-trifluoromethanesulfonyloxy)phenyl]propionyl-methanesulfonamide] | clearly prevented diabetes onset | constantly and significantly lower | 13+2.8 days | 29+16 | significantly lower | more than double the time | – | – |
| CC(C)Cc1ccc([C@@H](C)C(=O)NS(C)(=O)=O)cc1 [Reparixin, R(-)-2-[(4-isobutylphenyl)propionyl]-methanesulfonamide] | – | – | – | – | significantly lower | more than double the time | constantly and significantly lower | 27 ± 15 days |
